Source: publication PMC3272148 (2011)

Assays:
dopamine1 (D1) receptor [1] = target: T1, dopamine1 (D1) receptor (Oryctolagus cuniculus, UniProt G1SML2); assay: [3H]SCH23390 saturation radioligand binding
dopamine1 (D1) receptor [2] = target: T1, dopamine1 (D1) receptor; assay: [3H]SCH23390 competition radioligand binding
5-HT2C receptor [3] = target: T2, 5-HT2C receptor (Oryctolagus cuniculus, UniProt G1TAG7); assay: [3H]mesulergine competition radioligand binding
T2 sequence (G1TAG7 33-453): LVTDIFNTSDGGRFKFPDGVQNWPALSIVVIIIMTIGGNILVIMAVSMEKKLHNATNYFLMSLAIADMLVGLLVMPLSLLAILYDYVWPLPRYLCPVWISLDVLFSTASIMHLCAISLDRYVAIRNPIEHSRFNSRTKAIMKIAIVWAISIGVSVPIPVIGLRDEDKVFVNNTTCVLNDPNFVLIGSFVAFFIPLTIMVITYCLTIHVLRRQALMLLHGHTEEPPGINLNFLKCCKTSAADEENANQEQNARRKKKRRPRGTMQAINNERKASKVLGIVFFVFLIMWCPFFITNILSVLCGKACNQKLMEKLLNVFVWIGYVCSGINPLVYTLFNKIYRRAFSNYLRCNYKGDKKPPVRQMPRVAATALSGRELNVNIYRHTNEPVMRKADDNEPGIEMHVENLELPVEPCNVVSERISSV

5-HT2C receptor [4] = target: T2, 5-HT2C receptor; assay: [3H]mesulergine saturation radioligand binding
[5] = target: serotonin2A (5-HT2A) receptor (Oryctolagus cuniculus, UniProt G1SYA7); assay: [3H]ketanserin saturation radioligand binding
Sequence of serotonin2A (5-HT2A) receptor (G1SYA7 1-469): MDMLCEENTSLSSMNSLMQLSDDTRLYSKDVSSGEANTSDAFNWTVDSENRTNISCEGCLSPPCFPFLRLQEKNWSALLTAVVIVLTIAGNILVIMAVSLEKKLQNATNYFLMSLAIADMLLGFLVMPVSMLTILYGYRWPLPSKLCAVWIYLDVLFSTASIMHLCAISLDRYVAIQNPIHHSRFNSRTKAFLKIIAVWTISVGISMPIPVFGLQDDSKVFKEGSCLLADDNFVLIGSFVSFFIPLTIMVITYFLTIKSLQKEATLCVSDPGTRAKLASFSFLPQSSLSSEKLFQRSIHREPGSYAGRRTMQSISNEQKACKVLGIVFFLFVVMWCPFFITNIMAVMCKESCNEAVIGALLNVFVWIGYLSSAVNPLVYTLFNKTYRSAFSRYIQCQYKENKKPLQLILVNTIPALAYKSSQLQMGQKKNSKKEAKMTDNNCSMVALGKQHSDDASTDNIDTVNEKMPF

T1 sequence (G1SML2 1-448): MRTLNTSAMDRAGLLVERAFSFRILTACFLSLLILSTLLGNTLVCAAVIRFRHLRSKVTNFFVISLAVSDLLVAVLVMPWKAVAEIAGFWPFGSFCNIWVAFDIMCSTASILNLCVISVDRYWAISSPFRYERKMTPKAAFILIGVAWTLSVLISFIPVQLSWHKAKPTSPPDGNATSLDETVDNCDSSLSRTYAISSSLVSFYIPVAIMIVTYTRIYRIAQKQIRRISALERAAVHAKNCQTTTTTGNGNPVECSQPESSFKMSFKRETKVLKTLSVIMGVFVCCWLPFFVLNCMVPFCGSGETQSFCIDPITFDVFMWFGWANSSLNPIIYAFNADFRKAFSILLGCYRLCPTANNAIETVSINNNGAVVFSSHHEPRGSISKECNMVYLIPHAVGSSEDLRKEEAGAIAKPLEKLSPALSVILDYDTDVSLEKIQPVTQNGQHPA

Compound: CN1CCc2cc(Cl)c(O)cc2[C@@H](c2ccccc2)C1 [SCH23390]
- [3H]SCH23390 saturation radioligand binding (Bmax) (dopamine1 (D1) receptor [1]): Dopamine1 receptor density was quantified using eight concentrations of the antagonist radioligand, [^3H]SCH23390

Compound: CCN(CC)C(=O)[C@@H]1C=C2c3cccc4[nH]cc(c34)C[C@H]2N(C)C1 [LSD]
- Ki (dopamine1 (D1) receptor [2]): 161 nM
- Ki (5-HT2C receptor [3]): 7.5 nM

Compound: CN1C[C@@H](NS(=O)(=O)N(C)C)C[C@@H]2c3cccc4c3c(cn4C)C[C@H]21 [mesulergine]
- [3H]mesulergine saturation radioligand binding (Bmax) (5-HT2C receptor [4]): Serotonin2C receptor density was quantified using eight concentrations of the antagonist radioligand, [^3H]mesulergine

Compound: O=C(c1ccc(F)cc1)C1CCN(CCn2c(=O)[nH]c3ccccc3c2=O)CC1 [ketanserin]
- Kd [5]: 0.21 nM

Compound: COc1cc(CC(C)N)c(OC)cc1I (racemic) [DOI, (±)-1-(2,5-dimethoxy-4-iodophenyl)-2-aminopropane]
- Ki (5-HT2C receptor [3]): 73.5 nM
